Patent US20220323380A1, “DRUG COMBINATION FOR USE IN THE TREATMENT OF INFLAMMATORY DISEASES” (ISANAS AG, priority 2019, published 2022)

How the values were obtained:
[1] = tested on: patient suffering from MS; details: daily 300 mg bupropion over four weeks, MRI after three months, MS patient with depression; cited from earlier work
[2] = in vivo; cited from earlier work
[3] = tested on: MS patients; details: cited from earlier work
[4] = tested on: PC12D cells; details: cell cultures (Tsang 2002); cited from earlier work
[5] = humans, compared with MK-4 (Sato 2012); cited from earlier work
[6] = tested on: MS-patients; assay: Treatment of MS patients with the triple combination (case reports, MS score); assay type: in vivo, human; details: Example 2: one MS patient, own words
Text: The scoring ranges from zero to ten points and is the sum of the physical score and cognitive score. Attributing half points was allowed to better cover the full scale and subtlety of MS symptoms.

[7] = tested on: EAE rat model; details: cited from earlier work

CC(NC(C)(C)C)C(=O)c1cccc(Cl)c1 (centres unmarked) [bupropion]
MRI analysis of lesions [1]: rather showed a reduction of the lesions than a progression

CC1=CC(=O)c2ccccc2C1=O [VK3, 2-methylnaphthalene-1,4-dione]
reason for discontinued sales as prescription drug [2]: adverse effects and liver toxicity

Vitamin D
EDSS scores and annual relapse rate (ARR) ([3]; meta-analysis Zheng 2018): no therapeutic effect | recurrence of relapse, worsening of disability (EDSS), MRI lesions ([3]; review Jagannath 2018): no effect

CC1=C(C/C=C(\C)CCC[C@H](C)CCC[C@H](C)CCCC(C)C)C(=O)c2ccccc2C1=O [vitamin K1, phylloquinone]
nerve growth factor-mediated neurite outgrowth [4]: promoting activity

C=C1CC[C@H](O)C/C1=C/C=C1\CCC[C@]2(C)[C@@H]([C@H](C)CCCC(C)C)CC[C@@H]12 [vitamin D3, cholecalciferol]
correlation with treatment effect in MS ([3]; meta-analysis (Steinwart 2018), weekly dosage of 20,000 IU D3): did not provide any relevant correlation with treatment effect

CC(C)=CCC/C(C)=C/CC/C(C)=C/CC/C(C)=C/CC/C(C)=C/CC/C(C)=C/CC/C(C)=C/CC1=C(C)C(=O)c2ccccc2C1=O [MK-7]
bioavailability after oral intake [5]: much higher bioavailability after oral intake than MK-4

ocrelizumab: humanised monoclonal antibody that targets the CD20 marker on B lymphocytes
patient's comparison of ocrelizumab with the combination therapy [6]: could not achieve what this combination therapy could

menaquinone [VK2]
nerve growth factor-mediated neurite outgrowth [4]: promoting activity | efficacy in EAE ([7]; given after the onset of EAE): not effective | severity of EAE ([7]; prophylactic intraperitoneal administration, 62.5 mg/kg/d): ameliorated the severity of EAE
